# Legend:
# Assay type in all cases: functional
# Enterobacter hormaechei [1] = assay: Antibacterial activity against Enterobacter hormaechei isolate UCN62
# Enterobacter hormaechei [2] = assay: Antibacterial activity against Enterobacter hormaechei isolate UCN63 after 3 weeks of treatment
# Enterobacter cloacae [3] = assay: Antibacterial activity against Enterobacter cloacae UCN62 by broth microdilution method
# Enterobacter cloacae [4] = assay: Antibacterial activity against Enterobacter cloacae UCN63 by Etest after 3 weeks of treatment; details: UCN63, 504 h
# Enterobacter cloacae [5] = assay: Antibacterial activity against Enterobacter cloacae UCN62 by Etest
# Enterobacter cloacae [6] = assay: Antibacterial activity against Enterobacter cloacae UCN63 by broth microdilution method after 3 weeks of treatment; details: UCN63, 504 h
Compound,MIC (Enterobacter hormaechei [1]) [µg/mL],"MIC (Enterobacter hormaechei [2]; isolate UCN63, 504 h) [µg/mL]",MIC (Enterobacter cloacae [3]) [µg/mL],MIC (Enterobacter cloacae [4]) [µg/mL],MIC (Enterobacter cloacae [5]) [µg/mL],MIC (Enterobacter cloacae [6]) [µg/mL],MIC (Enterobacter hormaechei [2]) [µg/mL]
NCC[C@H](O)C(=O)N[C@@H]1C[C@H](N)[C@@H](O[C@H]2O[C@H](CN)[C@@H](O)[C@H](O)[C@H]2O)[C@H](O)[C@H]1O[C@H]1O[C@H](CO)[C@@H](O)[C@H](N)[C@H]1O [AMIKACIN],4,8,–,–,–,–,–
CO/N=C(\C(=O)N[C@@H]1C(=O)N2C(C(=O)O)=C(COC(C)=O)CS[C@H]12)c1csc(N)n1 [CEFOTAXIME],> 64,> 64,–,–,–,–,–
O=C(O)c1cn(C2CC2)c2cc(N3CCNCC3)c(F)cc2c1=O [CIPROFLOXACIN],> 16,> 16,–,–,–,–,–
C[C@@H](O)[C@H]1C(=O)N2C(C(=O)O)=C(SCCNC=N)C[C@H]12 [IMIPENEM ANHYDROUS],1,1,–,–,–,–,–
CN(C)c1cc(NC(=O)CNC(C)(C)C)c(O)c2c1C[C@H]1C[C@H]3[C@H](N(C)C)C(O)=C(C(N)=O)C(=O)[C@@]3(O)C(O)=C1C2=O [TIGECYCLINE],2,4,2,3,1,4,–
GENTAMICIN,> 32,–,–,–,–,–,> 32
